Assay results from patent US20090203523A1, “Fungicidal Mixtures Made From 1-Methylpyrazol-4-Ylcarboxanilides” (BASF AKTIENGESSELLSCHFT, priority 2005, published 2009).

Assays:
Puccinia recondita [1] = experiment: Curative activity against brown rust of wheat; assay type: in vivo; settings: wheat seedlings, efficacy in % of untreated control, 7 days
Pyrenophora teres = experiment: Activity against net blotch of barley, 1 day protective application; assay type: in vivo; settings: barley seedlings, efficacy in % of untreated control, evaluated after 6 days
Phytophthora infestans = assay type: cell-based; settings: 0.25 mg/l; microtiter plate, absorption at 405 nm on day 7
Puccinia recondita [2] = experiment: Protective activity against brown rust of wheat; assay type: in vivo; settings: wheat seedlings, efficacy in % of untreated control
Botrytis cinerea = experiment: Activity against gray mold on bell pepper leaves, 1 day protective use; assay type: in vivo; settings: 16 mg/l; bell pepper seedlings, efficacy in % of untreated control, evaluated after 5 days

Fc1ccc([C@]2(Cn3cncn3)O[C@H]2c2ccccc2Cl)cc1 (racemic) [epoxiconazole, (2RS,3SR)-1-[3-(2-chlorophenyl)-2,3-epoxy-2-(4-fluorophenyl)propyl]-1H-1,2,4-triazole, reference compound]
Observed activity (efficacy, % of untreated control) (Puccinia recondita [1]; 0.063 mg/l): 0%

CC1CCN(c2c(-c3c(F)cc(F)cc3F)c(Cl)nc3ncnn23)CC1 [5-chloro-7-(4-methylpiperidin-1-yl)-6-(2,4,6-trifluorophenyl)-[1,2,4]triazolo[1,5-a]pyrimidine]
Observed activity (Pyrenophora teres; 1 mg/l): 44%

Cn1cc(C(=O)Nc2ccccc2-c2ccc(C(F)(F)F)cc2)c(C(F)(F)F)n1 [No. I.1, N-(4′-trifluoromethylbiphenyl-2-yl)-1-methyl-3-trifluoromethyl-1H-pyrazole-4-carboxamide]
Observed activity (Pyrenophora teres; 0.25 mg/l): 11%
Observed activity (Pyrenophora teres; 1 mg/l): 56%
Observed activity (% infection) (Phytophthora infestans): 3%
melting point: 175 to 177 °C

COc1ccc(C(=CC(=O)N2CCOCC2)c2ccc(Cl)cc2)cc1OC [dimethomorph, 3-(4-chlorophenyl)-3-(3,4-dimethoxyphenyl)-1-morpholin-4-yl-propenone]
Observed activity (Pyrenophora teres; 16 mg/l): 0%
Observed efficacy (% of untreated control) (Puccinia recondita [2]; 63 mg/l): 0%

CC1(C)CC/C(=C\c2ccc(Cl)cc2)C1(O)Cn1cncn1 (stereo not shown) [triticonazole, (5E)-5-[(4-chlorophenyl)methylene]-2,2-dimethyl-1-(1H-1,2,4-triazol-1-ylmethyl)cyclopentanol, reference compound]
Observed activity (% infection) (Phytophthora infestans): 0%

Cn1cc(C(=O)Nc2ccccc2-c2ccc(C(F)(F)F)cc2)c(C(F)F)n1 [No. I.2, N-(4′-trifluoromethylbiphenyl-2-yl)-3-difluoromethyl-1-methyl-1H-pyrazole-4-carboxamide]
Observed efficacy (% of untreated control) (Botrytis cinerea): 70%
melting point: 164 to 165 °C
Observed efficacy (% of untreated control) (Puccinia recondita [2]; 16 mg/l): 0%
Observed activity (efficacy, % of untreated control) (Puccinia recondita [1]; 0.25 mg/l): 0%
Observed activity (efficacy, % of untreated control) (Puccinia recondita [1]; 1 mg/l): 56%

Cn1cc(C(=O)Nc2ccccc2-c2ccc(C(F)(F)F)cc2)c(CF)n1 [No. I.7, N-(4′-trifluoromethylbiphenyl-2-yl)-1-methyl-3-fluoromethyl-1H-pyrazole-4-carboxamide]
melting point: 156 to 158 °C

zinc ammoniate ethylenebis(dithiocarbamate) [metiram]
Observed activity (Pyrenophora teres; 16 mg/l): 0%

Cc1nn(C)c(Cl)c1C(=O)Nc1ccccc1-c1ccc(C(F)(F)F)cc1 [No. I.5, N-(4′-trifluoromethylbiphenyl-2-yl)-1,3-dimethyl-5-chloro-1H-pyrazole-4-carboxamide]
melting point: 173 to 175 °C

COc1cc(C)c(C(=O)c2c(OC)ccc(Br)c2C)c(OC)c1OC [metrafenone, 3′-bromo-2,3,4,6′-tetramethoxy-2′,6-dimethylbenzophenone]
Observed activity (Pyrenophora teres; 4 mg/l): 0%
Observed efficacy (% of untreated control) (Puccinia recondita [2]; 63 mg/l): 0%

COC(=O)N(OC)c1ccccc1COc1ccn(-c2ccc(Cl)cc2)n1 [pyraclostrobin, methyl N-{2-[1-(4-chlorophenyl)-1H-pyrazol-3-yloxymethyl]phenyl}(N-methoxy)carbamate, reference compound]
Observed efficacy (% of untreated control) (Botrytis cinerea): 10%

Cc1nn(C)cc1C(=O)Nc1ccccc1-c1ccc(C(F)(F)F)cc1 [No. I.6, N-(4′-trifluoromethylbiphenyl-2-yl)-1,3-dimethyl-1H-pyrazole-4-carboxamide]
melting point: 174 to 177 °C

Cn1nc(C(F)(F)F)c(C(=O)Nc2ccccc2-c2ccc(C(F)(F)F)cc2)c1F [No. I.3, N-(4′-trifluoromethylbiphenyl-2-yl)-1-methyl-3-trifluoromethyl-5-fluoro-1H-pyrazole-4-carboxamide]
melting point: 170 to 173 °C

Cn1nc(Cl)c(C(=O)Nc2ccccc2-c2ccc(C(F)(F)F)cc2)c1C(F)F [No. I.8, N-(4′-trifluoromethylbiphenyl-2-yl)-1-methyl-3-chlorodifluoromethyl-1H-pyrazole-4-carboxamide]
melting point: 193 to 196 °C

N#Cc1c(Cl)c(Cl)c(Cl)c(C#N)c1Cl [chlorthalonil, 2,4,5,6-tetrachloroisophthalonitrile, reference compound]
Observed activity (Pyrenophora teres; 16 mg/l): 0%
Observed activity (efficacy, % of untreated control) (Puccinia recondita [1]; 16 mg/l): 0%
